The structures appear in SMILES notation. Converted amounts (≈) assume the structure as drawn.

Assay [1] concerns Staph.aureus 6538P. In words: Minimum Inhibitory Concentration (MIC), broth dilution method. In kind it is cell-based. To be noted: Staphylococcus aureus, inoculum size 10^6 /ml.
In assay [2] the test system is Staph.aureus MS353 C36. Described as above. The assay is classed as cell-based. As to conditions: Staphylococcus aureus, MS353C36, Staph.aureus MS353 C36, inoculum size 10^6 /ml. An excerpt: (§1) Minimum Inhibitory Concentration (MIC) μg/ml
(§2) clinical isolates (macrolide resistant Agroup strains) inoculum size
(§3) 10^6 /ml, broth dilution method.

Assay [3] concerns Staph.aureus MS353. The description is as above. In kind it is cell-based. As to conditions: Staphylococcus aureus, inoculum size 10^6 /ml.
Description: as §1, §2, §3

The subject of assay [4] is Strept.faecalis 1501. The assay is described as above. The assay is classed as cell-based. To be noted: for MIC: Enterococcus faecalis, 1501, Strept.faecalis 1501, inoculum size 10^6 /ml.
Assay [5] has as its system Staph. aureus 0116. The description is as above. The assay is classed as cell-based. To be noted: inoculum size 10^6 /ml; for MIC: Staphylococcus aureus, 0116, Staph. aureus 0116, macrolide resistant clinical isolate (A group).
Description: as §1
(§4) *Erythromycin, oleandomycin, 16membered macrolide resistant strains of
as §2, §3

In assay [6] the test system is Staph.aureus 0119. Described as above. In kind it is cell-based. As to conditions: inoculum size 10^6 /ml; for MIC: Staphylococcus aureus, 0119, Staph.aureus 0119, macrolide resistant clinical isolate (A group).
Description: as §1, §4, §2, §3

For assay [7], the system named is Staph.aureus MS 353AO. Described as above. The assay is classed as cell-based. As to conditions: macrolide resistant clinical isolate (A group), inoculum size 10^6 /ml; for MIC: Staphylococcus aureus, MS353AO.
Description: as §1, §4, §2, §3

Assay [8] has as its system Strept.pyogenes 1022. Described as above. In kind it is cell-based. As to conditions: inoculum size 10^6 /ml; for MIC: Streptococcus pyogenes, 1022, Strept.pyogenes 1022, macrolide resistant clinical isolate (A group).
Description: as §1, §4, §2, §3

Assay [9] can be described thus: Potency as compared with standard leucomycin.

With `COC1C(OC(C)=O)CC(=O)OC(C)CC=CC=CC(O)C(C)CC(CC=O)C1OC1OC(C)C(OC2CC(C)(O)C(OC(=O)CC(C)C)C(C)O2)C(N(C)C)C1O` (stereo not shown) [LM-A3, Leucomycin A3, reference compound], the MIC (usually the smallest concentration in the dilution series that meets the test's criterion for growth inhibition) in [1] is 3.1 µg/mL (≈ 3.74 µM); in [2], 1.6 µg/mL (≈ 1.93 µM); in assay [3], 3.1 µg/mL (≈ 3.74 µM); in assay [4] it was 3.1 µg/mL (≈ 3.74 µM); in assay [5], greater than 100 µg/mL; in assay [6], greater than 100 µg/mL. In addition, the MIC in assay [7] and in assay [8] was greater than 100 µg/mL throughout.
Regarding `CCCC(=O)OC1C(C)OC(OC2C(C)OC(OC3C(CC=O)CC(C)C(O)C=CC=CCC(C)OC(=O)CC(OC(C)=O)C3OC)C(O)C2N(C)C)CC1(C)OC(C)=O` (stereo not shown) [3,3"-diacetyl LM-A5, 3,3"-diacetylleucomycin A5], the MIC in assay [1] was 1.6 µg/mL (≈ 1.87 µM); in assay [2] it was 0.8 µg/mL (≈ 0.935 µM); in assay [3] it was 1.6 µg/mL (≈ 1.87 µM); in assay [4], 1.6 µg/mL (≈ 1.87 µM); in assay [5] it was 50 µg/mL (≈ 58.4 µM); in assay [6], greater than 100 µg/mL. For the same compound, the minimal inhibitory concentration (MIC) is greater than 100 µg/mL in [7] and 1.6 µg/mL (≈ 1.87 µM) in assay [8].
Consider `CCCC(=O)OC1(C)CC(OC2C(C)OC(OC3C(CC=O)CC(C)C(O)C=CC=CCC(C)OC(=O)CC(O)C3OC)C(O)C2N(C)C)OC(C)C1OC(C)=O` (stereo not shown) [4"-acetyl-3"-butylyl LM-A5, 4"-acetyl-3"-butylyl leucomycin V], for which the minimum inhibitory concentration (MIC) in assay [1] was 1.6 µg/mL (≈ 1.97 µM); in assay [2] it was 0.8 µg/mL (≈ 0.983 µM); in assay [3], 1.6 µg/mL (≈ 1.97 µM); in [4], 0.8 µg/mL (≈ 0.983 µM); in assay [5], 50 µg/mL (≈ 61.4 µM); in [6] it was greater than 100 µg/mL. The MIC in [7] turned out to be 25 µg/mL (≈ 30.7 µM); in assay [8] it was 6.3 µg/mL (≈ 7.74 µM).
As for `CCCC(=O)OC1C(C)OC(OC2C(C)OC(OC3C(CC=O)CC(C)C(O)C=CC=CCC(C)OC(=O)CC(O)C3OC)C(O)C2N(C)C)CC1(C)O` (stereo not shown) [LM-A5, Leucomycin A5, reference compound], the MIC was 1.6 µg/mL (≈ 2.07 µM) in assay [1]; 1.6 µg/mL (≈ 2.07 µM) in [2]; 1.6 µg/mL (≈ 2.07 µM) in assay [3]; 1.6 µg/mL (≈ 2.07 µM) in [4]; greater than 100 µg/mL in assay [5]; greater than 100 µg/mL in assay [6]. In addition, the MIC in assay [7] and in assay [8] was greater than 100 µg/mL in each case.
On to `CCCC(=O)OC1C(C)OC(OC2C(C)OC(OC3C(CC=O)CC(C)C(O)C=CC=CCC(C)OC(=O)CC(O)C3OC)C(O)C2N(C)C)CC1(C)OC(=O)CCC` (stereo not shown) [3"butylyl LM-A5, 3"-butylyl leucomycin A5], for which the MIC in assay [1] worked out at 0.8 µg/mL (≈ 0.95 µM); in [2] it was 0.4 µg/mL (≈ 0.475 µM); in [3], 1.6 µg/mL (≈ 1.9 µM); in assay [4], 0.8 µg/mL (≈ 0.95 µM); in assay [5], 50 µg/mL (≈ 59.4 µM); in [6], 100 µg/mL (≈ 119 µM). Moreover, the MIC in [7] was greater than 100 µg/mL; in [8] it was 0.8 µg/mL (≈ 0.95 µM).
Turning to `CCCC(=O)OC1C(C)OC(OC2C(C)OC(OC3C(CC=O)CC(C)C(O)C=CC=CCC(C)OC(=O)CC(O)C3OC)C(O)C2N(C)C)CC1(C)OC(=O)CC` (stereo not shown) [3"-propionyl LM-A5, 3"-propionyl leucomycin A5], the MIC in [1] is 0.8 µg/mL (≈ 0.966 µM); in [2], 0.8 µg/mL (≈ 0.966 µM); in assay [3] it was 1.6 µg/mL (≈ 1.93 µM); in assay [4], 0.8 µg/mL (≈ 0.966 µM); in assay [5] it was 12.5 µg/mL (≈ 15.1 µM); in [6], greater than 100 µg/mL. Besides, the MIC in [7] is greater than 100 µg/mL; in assay [8], 0.4 µg/mL (≈ 0.483 µM). In assay [9], the Potency turned out to be 2850 µg/mg.
For `CCCC(=O)OC1C(C)OC(OC2C(C)OC(OC3C(CC=O)CC(C)C(O)C=CC=CCC(C)OC(=O)CC(O)C3OC)C(O)C2N(C)C)CC1(C)OC(C)=O` (stereo not shown) [3"-acetyl LM-A5, 3"-acetyl leucomycin A5], the MIC in assay [1] was 1.6 µg/mL (≈ 1.97 µM); in [3], 1.6 µg/mL (≈ 1.97 µM); in assay [4], 0.8 µg/mL (≈ 0.983 µM); in [5] it was 6.3 µg/mL (≈ 7.74 µM); in assay [6], 100 µg/mL (≈ 123 µM); in [7] it was greater than 100 µg/mL. Further, in [8], the MIC was determined as 0.4 µg/mL (≈ 0.491 µM). Also, the “Minimum Inhibitory Concentration (MIC)” value in assay [4] (Strept.faecalis 1501, inoculum size 10^6 /ml) is 1.6 µg/mL; in [5] (Staph. aureus 0116, macrolide resistant clinical isolate (A group)) it was 12.5 µg/mL; in assay [6] (Staph.aureus 0119, macrolide resistant clinical isolate (A group)) it was greater than 100 µg/mL; in assay [7] it was 100 µg/mL; in assay [8] (Strept.pyogenes 1022, macrolide resistant clinical isolate (A group)), 0.8 µg/mL. Further, in assay [9], the Potency was 2850 µg/mg.
Regarding `CCCC(=O)OC1C(C)OC(OC2C(C)OC(OC3C(CC=O)CC(C)C(OC(C)=O)C=CC=CCC(C)OC(=O)CC(O)C3OC)C(O)C2N(C)C)CC1(C)OC(C)=O` (stereo not shown) [9,3"-diacetyl LM-A5, 9,3"-diacetyl leucomycin A5], the MIC was 0.8 µg/mL (≈ 0.935 µM) in assay [1]; 0.8 µg/mL (≈ 0.935 µM) in [2]; 1.6 µg/mL (≈ 1.87 µM) in assay [3]; 1.6 µg/mL (≈ 1.87 µM) in assay [4]; 12.5 µg/mL (≈ 14.6 µM) in [5]; 100 µg/mL (≈ 117 µM) in assay [6]. Further, the MIC is greater than 100 µg/mL in [7] and 0.4 µg/mL (≈ 0.467 µM) in assay [8].
